Reference: ChEMBL document CHEMBL4190184, “Synthesis and Biological Evaluation of Benzocyclooctene-based and Indene-based Anticancer Agents that Function as Inhibitors of Tubulin Polymerization” (Medchemcomm, 2016)
Activity calls are given as the source filed them. No cut-off for these calls is given here.

Columns and labels:
[1] = Inhibition of bovine brain tubulin polymerization preincubated for 15 mins followed by GTP addition measured after 20 mins by spectrophotometric method; parameters: species or system Bos taurus
NCI-H460 = assay: Growth inhibition of human NCI-H460 cells after 48 hrs by SRB assay; assay type: functional; conditions: NCI-H460, 48 h
DU-145 = assay: Growth inhibition of human DU145 cells after 48 hrs by SRB assay; assay type: functional; conditions: DU-145, 48 h
SK-OV-3 = assay: Growth inhibition of human SKOV3 cells after 48 hrs by SRB assay; assay type: functional; conditions: SK-OV-3, 48 h
MCF7 [2] = assay: Induction of vascular disruption in human luc-GFP-mCherry-tagged MCF7 cells implanted in SCID-NOD mouse assessed as reduction in bioluminescence at 120 mg/kg, ip administered as single dose measured at 4 hrs post dose by luciferase reporter gene based imaging analysis relative to control; assay type: functional; parameters: scale not given: the % may be the effect or the level left
MCF7 [3] = assay: Induction of necrosis in human luc-GFP-mCherry-tagged MCF7 cells implanted in SCID-NOD mouse at 120 mg/kg, ip administered as single dose measured after 48 hrs by haematoxylin and eosin staining based microscopy; assay type: functional, organism-based
Bos taurus = species: Bos taurus; assay: Inhibition of [3H]colchicine binding to bovine brain tubulin at 5 uM after 10 mins by scintillation counting method relative to control
MCF7 [4] = assay: Induction of vascular disruption in human luc-GFP-mCherry-tagged MCF7 cells implanted in SCID-NOD mouse assessed as reduction in bioluminescence at 120 mg/kg, ip administered as single dose measured at 24 to 48 hrs post dose by luciferase reporter gene based imaging analysis; assay type: functional, organism-based

SMILES | IC50 [1] | GI50 (NCI-H460) | GI50 (DU-145) | GI50 (SK-OV-3) | Activity (MCF7 [2]) | Activity (MCF7 [3]) | inhibition (Bos taurus) | Activity (MCF7 [4])
COc1ccc(/C=C\c2cc(OC)c(OC)c(OC)c2)cc1OP(=O)(O)O [FOSBRETABULIN] | > 20000 nM | 2.82 nM | 3.36 nM | 1.9 nM | 80% | Active | – | –
COc1cc(/C2=C/CCCCc3c2ccc(OC)c3OC)cc(OC)c1OC | 4500 nM | 395 nM | 448 nM | 512 nM | – | – | 31% | –
COc1cc(C2=CCc3c2ccc(OC)c3OP(=O)(O)O)cc(OC)c1OC | > 20000 nM | 1500 nM | 3340 nM | 334 nM | – | – | – | –
COc1ccc2c(c1)CC=C2c1cc(OC)c(OC)c(OC)c1 | > 20000 nM | 4020 nM | 4660 nM | 6150 nM | – | – | – | –
COc1ccc2c(c1O)CCCC/C=C\2c1cc(OC)c(OC)c(OC)c1 | 1200 nM | 107 nM | 105 nM | 81.1 nM | – | – | 78% | –
COc1ccc2c(c1)CCCC/C=C\2c1cc(OC)c(OC)c(OC)c1 | 3000 nM | 431 nM | 570 nM | 400 nM | – | – | 29% | –
COc1cc(C2=CCc3c2ccc(OC)c3OC)cc(OC)c1OC | > 20000 nM | 42200 nM | 34600 nM | 9460 nM | – | – | – | –
COc1ccc2c(c1O)CC=C2c1cc(OC)c(OC)c(OC)c1 | 11000 nM | 388 nM | 362 nM | 704 nM | – | – | 17% | –
COc1cc(/C2=C/CCCCc3c2ccc(OC)c3OP(=O)([O-])[O-])cc(OC)c1OC.[Na+].[Na+] | > 20000 nM | 26 nM | 41 nM | 36.6 nM | 80% | Active | – | Active
